The source of these data is patent publication US9428504B2, “7-hydroxy-spiropipiperidine indolinyl antagonists of P2Y1 receptor” (BRISTOL-MYERS SQUIBB COMPANY, priority 2012, dated 2016).

Broadly, the Ki is a measure of affinity in units of concentration, obtained from inhibition or displacement. By IC50 is commonly meant the concentration that inhibits the measured activity by half.

Each structure is given as a SMILES string. Where a name gives a salt, the structure may show the parent alone.

In assay [1] the target is cloned human P2Y1 receptors (Homo sapiens (Human), UniProt P47900). Briefly: Binding Assay B: Scintillation Proximity Assay (SPA) for P2Y1 binding. Particulars: SPA, [33P] 2MeS-ADP displacement; read-out: P2Y1 Ki (nM) using binding assay B. In outline:
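Scintillation proximity readout of 0.3 nM [^33P] tracer displacement from receptor membranes (~15 fmol receptor, 1.7 μg protein). Binding ran 1 h at room temperature to completion; plates were then centrifuged and aqueous phase aspirated before counting.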

The test system of assay [2] is human platelet rich plasma (PRP). Briefly: ADP induced platelet aggregation assay. Particulars: Homo sapiens, Platelet, read-out: PA IC50 (μM) @ 10 μM ADP, platelet aggregation induced by 10 μM ADP, human PRP.
Procedure: The ability of P2Y1 antagonists covered in the present invention to inhibit platelet aggregation induced by 10 μM ADP was tested using human platelet rich plasma (PRP) as described in Platelet Protocols: Research and Clinical Laboratory Procedures (White, M. M. et al., Academic Press (1999)). Human blood was collected in 30 μM (final concentration in blood) argatroban (GSK) as the anticoagulant at a ratio of 1 ml per 9 ml of blood. The PRP was isolated by centrifugation at 170 g for 12 minutes. The platelet poor plasma (PPP) was used as the blank for optical aggregometry. Compounds of the present invention in DMSO solution was preincubated with 250 μl PRP at 37° C. for 1 minute with stirring speed of 1000 rpm. Aggregation was initiated by addition of 2.5 μl of 1 mM ADP (Chrono-log, Havertown, Pa.) for a final ADP concentration of 10 μM. Platelet aggregation was monitored using Optical Aggregometer (Chrono-log, Havertown, Pa.) and the area under the curve (AUC) at 5 minute was measured. IC50 was calculated using vehicle control as 0% inhibition.

Sequence of cloned human P2Y1 receptors (P47900 whole entry): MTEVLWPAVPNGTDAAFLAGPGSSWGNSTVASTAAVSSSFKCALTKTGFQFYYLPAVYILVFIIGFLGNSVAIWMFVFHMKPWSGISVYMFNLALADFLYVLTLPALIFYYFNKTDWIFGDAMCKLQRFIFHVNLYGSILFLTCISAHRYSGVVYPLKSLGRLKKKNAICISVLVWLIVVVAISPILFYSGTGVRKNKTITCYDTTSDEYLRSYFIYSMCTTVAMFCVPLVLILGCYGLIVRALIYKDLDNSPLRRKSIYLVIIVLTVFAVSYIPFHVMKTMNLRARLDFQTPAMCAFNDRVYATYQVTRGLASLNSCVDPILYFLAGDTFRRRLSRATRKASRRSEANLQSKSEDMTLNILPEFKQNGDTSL

Consider `CC(C)(C)CN1CCC2(CC1)CN(c1ccccc1NC(=O)Nc1ccc(OC(F)(F)F)cc1)c1c(O)cc(F)c(-c3ccc(Cl)cc3)c12` [Example 157, 1-(2-(4-(4-Chlorophenyl)-5-fluoro-7-hydroxy-1′-neopentylspiro[indoline-3,4′-piperidin]-1-yl)phenyl)-3-(4-(trifluoromethoxy)phenyl)urea], for which the Ki in assay [1] worked out at 12.3 nM. Moreover, in assay [2], the IC50 was determined as 0.2 µM.
As to `CC(C)CN1CCC2(CC1)CN(c1ccccc1NC(=O)Nc1nc3ccc(F)cc3s1)c1c(O)ccc(Cl)c12` [Example 4, 1-(2-(4-Chloro-7-hydroxy-1′-isobutylspiro[indoline-3,4′-piperidine]-1-yl)phenyl)-3-(6-fluorobenzo[d]thiazol-2-yl)urea], in assay [1], the inhibition constant Ki amounted to 9.9 nM. In addition, the IC50 in assay [2] worked out at 0.4 µM.
For `CC(C)(C)CN1CCC2(CC1)CN(c1ccccc1NC(=O)Nc1nc3c(s1)COCC3)c1c(O)ccc(Cl)c12` [Example 48, 1-(2-(4-Chloro-7-hydroxy-1′-neopentylspiro[indoline-3,4′-piperidine]-1-yl)phenyl)-3-(6,7-dihydro-4H-pyrano[4,3-d]thiazol-2-yl)urea, TFA], in that order: 8 nM and 0.4 µM.
Regarding `COc1ccc2nc(-c3ccc(O)c4c3C3(CCN(CC(C)(C)C)CC3)CN4c3ccccc3NC(=O)Nc3csc(Cl)n3)sc2c1` [Example 128, 1-(2-Chlorothiazol-4-yl)-3-(2-(7-hydroxy-4-(6-methoxybenzo[d]thiazol-2-yl)-1′-neopentylspiro[indoline-3,4′-piperidin]-1-yl)phenyl)urea], the Ki in assay [1] turned out to be 8 nM. For the same compound, in assay [2], the IC50 is 0.2 µM.
For `CC(C)(C)CN1CCC2(CC1)CN(c1ccccc1NC(=O)Nc1nc3ccc(Cl)nc3s1)c1c(O)cc(F)c(Cl)c12` [Example 101, 1-(2-(4-Chloro-5-fluoro-7-hydroxy-1′-neopentylspiro [indoline-3,4′-piperidin]-1-yl)phenyl)-3-(5-chlorothiazolo[5,4-b]pyridin-2-yl)urea], in that order: 12.2 nM and 0.9 µM.
Consider `CC(C)(C)CN1CCC2(CC1)CN(c1ccccc1NC(=O)Nc1nc3ccc(OC(F)(F)F)cc3s1)c1c(O)ccc(Cl)c12` [Example 52, 1-(2-(4-Chloro-7-hydroxy-1′-neopentylspiro[indoline-3,4′-piperidine]-1-yl)phenyl)-3-(6-(trifluoromethoxy)benzo[d]thiazol-2-yl)urea, TFA], for which the Ki in assay [1] is 9.2 nM. In assay [2], the IC50 is 0.3 µM.
Take `CC(C)CN1CCC2(CC1)CN(c1ccccc1NC(=O)Nc1nc3ccc(Cl)cc3s1)c1c(O)ccc(C(F)(F)F)c12` [Example 30, 1-(6-Chlorobenzo[d]thiazol-2-yl)-3-(2-(7-hydroxy-1′-isobutyl-4-(trifluoromethyl)spiro[indoline-3,4′-piperidine]-1-yl)phenyl)urea]: the Ki in assay [1] turned out to be 14.5 nM. Besides, the IC50 in assay [2] was found to be 0.1 µM.
For `CC(C)(C)CN1CCC2(CC1)CN(c1ccccc1NC(=O)Nc1nc3c(s1)CN(CC(F)(F)F)CC3)c1c(O)ccc(Cl)c12` [Example 71, 1-(2-(4-Chloro-7-hydroxy-1′-neopentylspiro[indoline-3,4′-piperidine]-1-yl)phenyl)-3-(5-(2,2,2-trifluoroethyl)-4,5,6,7-tetrahydrothiazolo[5,4-c]pyridin-2-yl)urea], in that order: 11.1 nM and 0.3 µM.
For `Cc1ccc2nc(NC(=O)Nc3ccccc3N3CC4(CCN(CC(C)(C)C)CC4)c4c(C#N)ccc(O)c43)sc2c1` [Example 84, 1-(2-(4-Cyano-7-hydroxy-1′-neopentylspiro[indoline-3,4′-piperidine]-l-yl)phenyl)-3-(6-methylbenzo[d]thiazol-2-yl) urea, trifluoroacetic acid salt], in that order: 11.8 nM and 0.5 µM.
For `CC(C)(C)CN1CCC2(CC1)CN(c1ccccc1NC(=O)Nc1nc3ccc(Cl)cc3s1)c1c(O)ccc(-c3nc4cccc(Cl)c4s3)c12` [Example 124, 1-(6-Chlorobenzo[d]thiazol-2-yl)-3-(2-(4-(7-chlorobenzo[d]thiazol-2-yl)-7-hydroxy-1′-neopentylspiro[indoline-3,4′-piperidin]-1-yl)phenyl)urea], in that order: 51.5 nM and 1 µM.
`CC(C)(C)CN1CCC2(CC1)CN(c1ncccc1NC(=O)Nc1nc3ccc(F)cc3s1)c1c(O)ccc(Cl)c12` [Example 66, 1-(2-(4-Chloro-7-hydroxy-1′-neopentylspiro[indoline-3,4′-piperidine]-1-yl)pyridin-3-yl)-3-(6-fluorobenzo[d]thiazol-2-yl)urea]: the Ki in assay [1] is 25.8 nM. In assay [2], the IC50 turned out to be 1.2 µM.
For `CC(C)(C)CN1CCC2(CC1)CN(c1ccccc1NC(=O)Nc1ccc(OC(F)(F)F)cc1)c1c(O)c(F)cc(-c3ccc(F)cc3)c12` [Example 153, 1-(2-(6-Fluoro-4-(4-fluorophenyl)-7-hydroxy-1′-neopentylspiro[indoline-3,4′-piperidin]-1-yl)phenyl)-3-(4-(trifluoromethoxy)phenyl)urea], in that order: 11.5 nM and 0.4 µM.
For `CC(C)(C)CN1CCC2(CC1)CN(c1ccccc1NC(=O)Nc1nc3ccc(F)cc3s1)c1c(O)cc(F)c(-c3nc4cc(Cl)ccc4s3)c12` [Example 140, 1-(2-(4-(5-Chlorobenzo[d]thiazol-2-yl)-5-fluoro-7-hydroxy-1′-neopentylspiro[indoline-3,4′-piperidin]-1-yl)phenyl)-3-(6-fluorobenzo[d]thiazol-2-yl)urea], in that order: 52.4 nM and 0.6 µM.
Take `CC(C)(C)CN1CCC2(CC1)CN(c1ccccc1NC(=O)Nc1nc3c(s1)CSCC3)c1c(O)ccc(Cl)c12` [Example 49, 1-(2-(4-Chloro-7-hydroxy-1′-neopentylspiro[indoline-3,4′-piperidine]-1-yl)phenyl)-3-(6,7-dihydro-4H-thiopyrano[4,3-d]thiazol-2-yl)urea, TFA]: in assay [1], the Ki worked out at 6.5 nM. In addition, in assay [2], the IC50 amounted to 0.3 µM.
As to `CC(C)(C)CN1CCC2(CC1)CN(c1ccccc1NC(=O)Nc1nc3ccc(F)cc3s1)c1c(O)cc(F)c(Cl)c12` [Example 93, 1-(2-(4-Chloro-5-fluoro-7-hydroxy-1′-neopentylspiro [indoline-3,4′-piperidine]-1-yl)phenyl)-3-(6-fluorobenzo[d]thiazol-2-yl)urea], the inhibitory constant (Ki) in assay [1] was 13.5 nM. Further, the IC50 in assay [2] worked out at 0.5 µM.
For `CC(C)CN1CCC2(CC1)CN(c1ccccc1NC(=O)Nc1nc3ccc(Cl)cc3s1)c1c(O)ccc(C#N)c12` [Example 80, 1-(6-Chlorobenzo[d]thiazol-2-yl)-3-(2-(4-cyano-7-hydroxy-1′-isobutylspiro[indoline-3,4′-piperidine]-1-yl)phenyl)urea], in that order: 14.4 nM and 0.9 µM.
For `CC(C)(C)CN1CCC2(CC1)CN(c1ccccc1NC(=O)Nc1ccc(F)c(F)c1)c1c(O)ccc(C(F)(F)F)c12` [Example 15, 1-(3,4-Difluorophenyl)-3-(2-(7-hydroxy-1′-neopentyl-4-(trifluoromethyl)spiro[indoline-3,4′-piperidine]-1-yl)phenyl)urea], in that order: 5.1 nM and 0.5 µM.
For `CC(C)(C)CN1CCC2(CC1)CN(c1ccccc1NC(=O)Nc1csc(C(F)(F)F)n1)c1c(O)cc(F)c(-c3ccc(C(F)(F)F)nc3)c12` [Example 159, 1-(2-(5-Fluoro-7-hydroxy-1′-neopentyl-4-(6-(trifluoromethyl)pyridin-3-yl)spiro[indoline-3,4′-piperidin]-1-yl)phenyl)-3-(2-(trifluoromethyl)thiazol-4-yl)urea], in that order: 281 nM and 0.1 µM.
Consider `CC(C)(C)CN1CCC2(CC1)CN(c1ccccc1NC(=O)Nc1csc(Cl)n1)c1c(O)ccc(C#N)c12` [Example 85, l-(2-Chlorothiazol-4-yl)-3-(2-(4-cyano-7-hydroxy-1′-neopentylspiro[indoline-3,4′-piperidine]-1-yl)phenyl)urea], for which the Ki in assay [1] worked out at 3.7 nM. For the same compound, in assay [2], the IC50 worked out at 0.4 µM.
As to `CC(C)(C)CN1CCC2(CC1)CN(c1ccccc1NC(=O)Nc1ccc(OC(F)(F)F)cc1)c1c(O)ccc(F)c12` [Example 6, 1-(2-(4-Fluoro-7-hydroxy-1′-neopentylspiro[indoline-3,4′-piperidine]-1-yl)phenyl)-3-(4-(trifluoromethoxy)phenyl)urea], in assay [1], the Ki worked out at 4.4 nM. In assay [2], the IC50 was determined as 0.9 µM.
On to `CC(C)(C)CN1CCC2(CC1)CN(c1ccccc1NC(=O)Nc1nc3ccc(F)cc3s1)c1c(O)cc(F)c(F)c12` [Example 95, 1-(2-(4,5-Difluoro-7-hydroxy-1′-neopentylspiro [indoline-3,4′-piperidine]-1-yl)phenyl)-3-(6-fluorobenzo[d]thiazol-2-yl)urea], for which the Ki in assay [1] worked out at 14.7 nM. Besides, in assay [2], the IC50 stood at 0.5 µM.
As to `CC(C)(C)CN1CCC2(CC1)CN(c1ccccc1NC(=O)Nc1csc(Cl)n1)c1c(O)ccc(-c3nc4ccc(Br)cc4s3)c12` [Example 119, 1-(2-(4-(6-Bromobenzo[d]thiazol-2-yl)-7-hydroxy-1′-neopentylspiro[indoline-3,4′-piperidin]-1-yl)phenyl)-3-(2-chlorothiazol-4-yl)urea], in assay [1], the Ki worked out at 18.4 nM. For the same compound, the IC50 in assay [2] turned out to be 0.3 µM.
With `CC(C)(C)CN1CCC2(CC1)CN(c1ccccc1NC(=O)Nc1ccc(OC(F)(F)F)cc1)c1c(O)c(F)cc(-c3ccc(Cl)cc3)c12` [Example 156, 1-(2-(4-(4-Chlorophenyl)-6-fluoro-7-hydroxy-1′-neopentylspiro[indoline-3,4′-piperidin]-1-yl)phenyl)-3-(4-(trifluoromethoxy)phenyl)urea], in assay [1], the Ki is 20.2 nM. In addition, the IC50 in assay [2] was found to be 0.2 µM.
